In ChEMBL document CHEMBL4311942, “Design of Trp-Rich Dodecapeptides with Broad-Spectrum Antimicrobial Potency and Membrane-Disruptive Mechanism” (J Med Chem, 2019):
In brackets after ≈: the same amount, converted by molar mass. Activity calls are given as the source filed them. The calls are words filed in the database; no cut-off is given here. Where a SMILES comes first, the peptide text is derived from it.

Tests used:
Staphylococcus aureus [1] = assay: Antibacterial activity against Staphylococcus aureus ATCC 29213 in presence of NaCl by broth microdilution method; assay type: functional
[2] = test system: Staphylococcus epidermidis; assay: Antibacterial activity against Staphylococcus epidermidis ATCC 12228 incubated for 18 to 24 hrs by broth microdilution method; assay type: functional
Escherichia coli [3] = assay: Antibacterial activity against Escherichia coli ATCC 25922 in presence of H202 by broth microdilution method; assay type: functional
Escherichia coli [4] = assay: Antibacterial activity against Escherichia coli ATCC 25922 in presence of MgCl2 by broth microdilution method; assay type: functional
Escherichia coli [5] = assay: Antibacterial activity against Escherichia coli ATCC 25922 in presence of 50% serum by broth microdilution method; assay type: functional
Escherichia coli [6] = assay: Induction of cell membrane disruption in Escherichia coli ATCC 25922 assessed as seperation of cytoplasmic membrane from outer membrane at 2 times MIC after 60 mins by transmission electron microscopy; assay type: organism-based
Escherichia coli [7] = assay: Antibacterial activity against Escherichia coli ATCC 25922 using preheated compound at 100 degreeC for 1 hr by broth microdilution method; assay type: functional; conditions: ATCC 25922, 1 h
Escherichia coli [8] = assay: Bactericidal activity against Escherichia coli ATCC 25922 at 1 times MIC after 120 mins by time kill assay; assay type: functional, organism-based
Escherichia coli [9] = assay: Disruption of Escherichia coli ATCC 25922 cell membrane assessed as induction of arachnoid damage at 2 times MIC after 60 mins by field emission scanning electron microscopy; assay type: organism-based
Escherichia coli [10] = assay: Induction of cell membrane disruption in Escherichia coli ATCC 25922 assessed as appearance of partial membrane corrugation at 1 times MIC after 60 mins by field emission scanning electron microscopy; assay type: organism-based
Escherichia coli [11] = assay: Antibacterial activity against Escherichia coli ATCC 25922 incubated for 2 hrs in presence of sodium phosphate buffer at pH 4 by broth microdilution method; assay type: functional; conditions: ATCC 25922, 2 h
Staphylococcus aureus [12] = assay: Induction of cell membrane disruption in Staphylococcus aureus ATCC 29213 assessed as apperance of broken and empty cell envelope at 2 times MIC after 60 mins by field emission scanning electron microscopy; assay type: organism-based
Staphylococcus aureus [13] = assay: Antibacterial activity against Staphylococcus aureus ATCC 29213 in presence of CaCl2 by broth microdilution method; assay type: functional
Escherichia coli [14] = assay: Induction of cell membrane disruption in Escherichia coli ATCC 25922 assessed as appearance of cytoplasmic clear zones at 1 times MIC after 60 mins by transmission electron microscopy; assay type: organism-based
Staphylococcus aureus [15] = assay: Bactericidal activity against Staphylococcus aureus ATCC 29213 at 2 times MIC after 60 mins by time kill assay; assay type: functional, organism-based
Staphylococcus aureus [16] = assay: Antibacterial activity against Staphylococcus aureus ATCC 29213 in presence of H202 by broth microdilution method; assay type: functional
Escherichia coli [17] = assay: Induction of cell membrane disruption in Escherichia coli ATCC 25922 assessed as appearance of membrane atrophy at 1 times MIC after 60 mins by field emission scanning electron microscopy; assay type: organism-based
Escherichia coli [18] = assay: Antibacterial activity against Escherichia coli ATCC 25922 in presence of ZnCl2 by broth microdilution method; assay type: functional
Escherichia coli [19] = assay: Antibacterial activity against Escherichia coli ATCC 25922 in presence of NH4Cl by broth microdilution method; assay type: functional
Escherichia coli [20] = assay: Antibacterial activity against ciprofloxacin-resistant Escherichia coli ATCC 25922 incubated for 18 to 24 hrs; assay type: functional
Lipopolysaccharide (LPS) = assay: Displacement of BODIPY-TR-cadaverine from Escherichia coli O111:B4 LPS by spectrofluorophotometric method
Staphylococcus aureus [21] = assay: Antibacterial activity against Staphylococcus aureus ATCC 29213 in presence of NaBH4 by broth microdilution method; assay type: functional
Staphylococcus aureus [22] = assay: Antibacterial activity against Staphylococcus aureus ATCC 29213 in presence of 12.5% serum by broth microdilution method; assay type: functional
Acinetobacter baumannii = assay: Antibacterial activity against Acinetobacter baumannii AB1901 clinical isolate incubated for 18 to 24 hrs by broth microdilution method; assay type: functional
[23] = Drug localization in Staphylococcus aureus ATCC 29213 at 1 to 2 times MIC incubated for 1 hr using FITC-labelled peptides by propidium iodide-staining based regular fluorescent microscopy; assay type: ADME
Staphylococcus aureus [24] = assay: Induction of cell membrane disruption in Staphylococcus aureus ATCC 29213 assessed as propidium iodide-positive cells at 2 times MIC after 30 mins by flow cytometric analysis (reference value: 0.3%)
Escherichia coli [25] = assay: Antibacterial activity against Escherichia coli ATCC 25922 incubated for 18 to 24 hrs by broth microdilution method; assay type: functional
Escherichia coli [26] = assay: Antibacterial activity against Escherichia coli ATCC 25922 incubated for 2 hrs in presence of sodium phosphate buffer at pH 10 by broth microdilution method; assay type: functional; conditions: ATCC 25922, 2 h
[27] = Drug localization in Escherichia coli ATCC 25922 at 1 to 2 times MIC incubated for 1 hr using FITC-labelled peptides by propidium iodide-staining based regular fluorescent microscopy; assay type: ADME
[28] = Drug localization in Staphylococcus aureus ATCC 29213 at 2 times MIC incubated for 1 hr using FITC-labelled peptides by propidium iodide-staining based super resolution fluorescent microscopy; assay type: ADME
Escherichia coli [29] = assay: Antibacterial activity against Escherichia coli ATCC 25922 in presence of FeCl3 by broth microdilution method; assay type: functional
Staphylococcus aureus [30] = assay: Induction of cell membrane disruption in Staphylococcus aureus ATCC 29213 assessed as leakage of cellular content at 1 to 2 times MIC after 60 mins by transmission electron microscopy; assay type: organism-based
Escherichia coli [31] = assay: Antibacterial activity against Escherichia coli ATCC 25922 incubated for 2 hrs in presence of sodium phosphate buffer at pH 12 by broth microdilution method; assay type: functional; conditions: ATCC 25922, 2 h
Staphylococcus aureus [32] = assay: Antibacterial activity against Staphylococcus aureus ATCC 29213 in presence of 25% serum by broth microdilution method; assay type: functional
Escherichia coli [33] = assay: Induction of outer membrane permeabilization in Escherichia coli UB1005 assessed as increase in NPN uptake at 4 uM by spectrofluorophotometric assay relative to control
[34] = Cytotoxicity against mouse RAW264.7 cells assessed as cell survival at <= 32 uM after 24 hrs by MTT assay relative to control; assay type: cell-based; conditions: RAW264.7 cells, up to 32 µM, read-out: Activity
Staphylococcus aureus [35] = assay: Antibacterial activity against Staphylococcus aureus ATCC 29213 in presence of ZnCl2 by broth microdilution method; assay type: functional
Staphylococcus aureus [36] = assay: Antibacterial activity against Staphylococcus aureus ATCC 29213 incubated for 18 to 24 hrs by broth microdilution method; assay type: functional
Escherichia coli [37] = assay: Induction of cell membrane disruption in Escherichia coli ATCC 25922 assessed as propidium iodide-positive cells at 2 times MIC after 30 mins by flow cytometric analysis (reference value: 0.8%)
Escherichia coli [38] = assay: Antibacterial activity against Escherichia coli 20411 clinical isolate incubated for 18 to 24 hrs by broth microdilution method; assay type: functional
Escherichia coli [39] = assay: Bactericidal activity against Escherichia coli ATCC 25922 assessed as reduction in bacterial growth at 4 times MIC after 30 mins by time kill assay relative to control; assay type: functional
Staphylococcus aureus [40] = assay: Antibacterial activity against Staphylococcus aureus ATCC 29213 in presence of FeCl3 by broth microdilution method; assay type: functional
Escherichia coli [41] = assay: Bactericidal activity against Escherichia coli ATCC 25922 at 4 times MIC after 60 mins by time kill assay relative to control; assay type: functional

CC(C)C[C@H](NC(=O)[C@H](CCCNC(=N)N)NC(=O)[C@H](Cc1c[nH]c2ccccc12)NC(=O)[C@H](CCCNC(=N)N)NC(=O)[C@@H](NC(=O)[C@H](CCCCN)NC(=O)[C@H](Cc1c[nH]c2ccccc12)NC(=O)[C@H](CCCNC(=N)N)NC(=O)[C@H](CC(C)C)NC(=O)[C@H](CCCNC(=N)N)NC(=O)[C@@H](N)Cc1c[nH]c2ccccc12)[C@@H](C)O)C(=O)N[C@@H](CCCCN)C(N)=O (H-WRLRWKTRWRLK-NH2)
MIC (Staphylococcus aureus [1]): 8 µM
MIC [2]: 4 µM (≈ 7.14 µg/mL)
MIC (Escherichia coli [3]): 2 µM
MIC (Escherichia coli [4]): 2 µM
MIC (Escherichia coli [5]): 8 µM
Activity (Escherichia coli [6]): Active
MIC (Escherichia coli [7]): 2 µM (≈ 3.57 µg/mL)
Activity (Escherichia coli [8]): inactive
Activity (Escherichia coli [9]): Active
Activity (Escherichia coli [10]): Active
MIC (Escherichia coli [11]): 2 µM
Activity (Staphylococcus aureus [12]): Active
MIC (Staphylococcus aureus [13]): 4 µM
Activity (Escherichia coli [14]): Active
Activity (Staphylococcus aureus [15]): Active
MIC (Staphylococcus aureus [16]): 4 µM
Activity (Escherichia coli [17]): Active
MIC (Escherichia coli [18]): 4 µM
MIC (Escherichia coli [19]): 1 µM
MIC (Escherichia coli [20]): 4 µM (≈ 7.14 µg/mL)
Activity (Lipopolysaccharide (LPS)): Dose-dependent effect
MIC (Staphylococcus aureus [21]): 4 µM
MIC (Staphylococcus aureus [22]): 4 µM
MIC (Acinetobacter baumannii): 4 µM (≈ 7.14 µg/mL)
Drug uptake [23]: Active
Activity (Staphylococcus aureus [24]): 97.7%
MIC (Escherichia coli [25]): 4 µM (≈ 7.14 µg/mL)
MIC (Escherichia coli [26]): 4 µM
Drug uptake [27]: Active
Drug uptake [28]: Active
MIC (Escherichia coli [29]): 4 µM
Activity (Staphylococcus aureus [30]): Active
MIC (Escherichia coli [31]): 2 µM
MIC (Staphylococcus aureus [32]): 8 µM
Activity (Escherichia coli [33]): 90%
viability at 24 h [34]: ≥ 70%
MIC (Staphylococcus aureus [35]): 4 µM
MIC (Staphylococcus aureus [36]): 4 µM (≈ 7.14 µg/mL)
Activity (Escherichia coli [37]): 91.7%
MIC (Escherichia coli [38]): 2 µM (≈ 3.57 µg/mL)
log(activity) (Escherichia coli [39]): 1
MIC (Staphylococcus aureus [40]): 4 µM
Activity (Escherichia coli [41]): 100%
